Experimental data taken from PubChem BioAssay (NCI).
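Exposure lasted 48 hours, with cells grown in 96-well plates and compounds tested at five concentrations. GI50 is the concentration that inhibits growth by half. TGI is the concentration that stops growth completely.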

What was measured:
Experiment in all cases: growth of human tumour cells (NCI), 48 h
786-0 renal = test system: 786-0 renal
K-562 leukemia = test system: K-562 leukemia
MCF7 breast = test system: MCF7 breast
RPMI-8226 leukemia = test system: RPMI-8226 leukemia
SK-MEL-2 melanoma = test system: SK-MEL-2 melanoma
SK-OV-3 ovarian = test system: SK-OV-3 ovarian
T-47D breast = test system: T-47D breast
CAKI-1 renal = test system: CAKI-1 renal
UO-31 renal = test system: UO-31 renal

| SMILES | TGI (786-0 renal) [µM] | TGI (K-562 leukemia) [µM] | TGI (MCF7 breast) [µM] | TGI (RPMI-8226 leukemia) [µM] | TGI (SK-MEL-2 melanoma) [µM] | TGI (SK-OV-3 ovarian) [µM] | TGI (T-47D breast) [µM] | TGI (CAKI-1 renal) [µM] | TGI (UO-31 renal) [µM] | GI50 (786-0 renal) [µM] | GI50 (CAKI-1 renal) [µM] | GI50 (K-562 leukemia) [µM] | GI50 (MCF7 breast) [µM] | GI50 (RPMI-8226 leukemia) [µM] | GI50 (SK-MEL-2 melanoma) [µM] | GI50 (UO-31 renal) [µM] |
| --- | --- | --- | --- | --- | --- | --- | --- | --- | --- | --- | --- | --- | --- | --- | --- | --- |
| Cc1ccc(S(=O)(=O)OC2CCN(C)CC2)cc1 | > 100 | 40.4 | > 100 | 49.8 | > 100 | > 100 | 48.6 | – | – | – | – | – | – | – | – | – |
| O=C(Nc1ccccc1-c1n[nH]c(=S)[nH]c1=O)C(F)(F)F | > 100 | > 100 | – | – | > 100 | > 100 | – | > 100 | > 100 | – | – | – | – | – | – | – |
| Clc1ncnc(Cl)c1Cl | > 100 | > 100 | > 100 | > 100 | – | > 100 | > 100 | > 100 | > 100 | – | – | – | – | – | – | – |
| Cc1ccc(S(=O)(=O)N[C@H](C(=O)O)c2ccccc2)cc1 | > 100 | > 100 | – | > 100 | > 100 | > 100 | – | > 100 | > 100 | – | – | – | – | – | – | – |
| Cc1cn(Cc2ccccc2CCO)c(=S)[nH]c1=O | > 100 | > 100 | – | > 100 | > 100 | > 100 | – | > 100 | > 100 | – | – | – | – | – | – | – |
| CC(C)(C)OC1=C(OC(C)(C)C)C(O)(c2ccccc2)C1=O (stereo unspecified) | > 100 | > 100 | – | > 100 | – | > 100 | – | – | > 100 | – | – | – | – | – | – | – |
| N#Cc1ccccc1NC(=O)/C(=N\N)C(C(=O)c1ccncc1)C1OC(=O)c2ccccc21 (stereo unspecified) | > 100 | > 100 | – | > 100 | > 100 | > 100 | – | – | > 100 | – | – | – | – | – | – | – |
| O=C(Nc1ccc(Cl)cc1Cl)C1C(=O)N(c2ccc(Cl)cc2Cl)C(=O)/C1=N\Nc1ccc([N+](=O)[O-])cc1[N+](=O)[O-] (stereo unspecified) | > 100 | > 100 | – | 69.5 | > 100 | > 100 | – | > 100 | > 100 | – | – | – | – | – | – | – |
| CC(C)/C=C1\CCC(CN2CCCC2)C1=O (stereo unspecified) | 4.8 | 11.9 | – | 3.5 | 37.7 | > 100 | – | 10.2 | 32.5 | – | – | – | – | – | – | – |
| O=C(Nc1c(O)[nH]c(=S)[nH]c1=O)c1ccccc1F | > 100 | > 100 | – | > 100 | > 100 | > 100 | – | > 100 | > 100 | – | – | – | – | – | – | – |
| CC(C)(C)NNC(=O)/C(=C/c1ccc([N+](=O)[O-])cc1)NC(=O)c1ccccc1 | > 100 | > 100 | – | > 100 | > 100 | > 100 | – | > 100 | > 100 | – | – | – | – | – | – | – |
| COc1cc(C2c3[nH]c4ccccc4c3C[C@H]3COC(=O)N23)cc(OC)c1OC (stereo partly specified) | > 100 | 1.13 | – | < 0.01 | > 100 | – | – | > 100 | 50.1 | < 0.01 | < 0.01 | < 0.01 | < 0.01 | < 0.01 | < 0.01 | < 0.01 |
| CC(NS(=O)(=O)c1ccc([N+](=O)[O-])cc1)C(=O)O (stereo unspecified) | > 100 | > 100 | – | > 100 | > 100 | > 100 | – | > 100 | > 100 | – | – | – | – | – | – | – |
| O=C1[C@@H]2C(c3ccccc3Br)=NO[C@@H]2C(=O)N1c1ccc(Cc2ccc(N3C(=O)[C@H]4C(c5ccccc5Br)=NO[C@H]4C3=O)cc2)cc1 | > 100 | > 100 | – | > 100 | > 100 | > 100 | – | > 100 | > 100 | – | – | – | – | – | – | – |
